Measurements taken from patent US20260199427A1 (priority 2021, published 2026).
Where “and” joins values, the source holds several entries; their conditions need not be identical. Identical values can stand only once.

Legend:
[1] = tested on: B. anthracis Ames NR-3838 spores; parameters: species or system New Zealand White (NZW) rabbits; conditions: rabbit, in vivo
[2] = tested on: B. anthracis Ames NR-3838 spores; parameters: species or system New Zealand White (NZW) rabbits; conditions: rabbit, in vivo; remark: listed apart in the source
[3] = tested on: B. anthracis Ames spores (NR3838); parameters: species or system New Zealand White (NZW) rabbits; conditions: rabbit, in vivo
[4] = tested on: B. anthracis Ames spores (NR3838); parameters: species or system New Zealand White (NZW) rabbits; conditions: rabbit, in vivo; remark: listed apart in the source
[5] = tested on: B. anthracis Ames NR-3838 spores; conditions: rabbit, in vivo
B. anthracis = assay: microbe, parasite or virus in culture; assay type: cell-based; conditions: Bacillus anthracis
[6] = tested on: B. anthracis Ames NR-3838 spores; parameters: species or system New Zealand White (NZW) rabbits; conditions: rabbit, in vivo; remark: listed apart in the source
[7] = tested on: B. anthracis Ames NR-3838 spores; parameters: species or system New Zealand White (NZW) rabbits; conditions: rabbit, in vivo; remark: listed apart in the source
[8] = tested on: B. anthracis Ames spores (NR3838); parameters: species or system New Zealand White (NZW) rabbits; conditions: rabbit, in vivo; remark: listed apart in the source
[9] = tested on: B. anthracis Ames spores (NR3838); parameters: species or system New Zealand White (NZW) rabbits; conditions: rabbit, in vivo; remark: listed apart in the source

| SMILES | survival [1] [%] | Average Bacterial Load (cfu/g), lung [2] [cfu/g] | overall survival rate [3] [%] | survival [3] | B. anthracis bacterial load in lymph node tissue [4] [cfu/g] | B. anthracis bacterial load in spleen tissue [4] [cfu/g] | peak of febrile response (core body temperature) [5] [°C] | MIC (B. anthracis) [µg/mL] | animals positive for bacteremia [6] | average level of bacteremia, comparing only the two antibiotic-treated groups [6] | average bacterial load in the lung tissue, comparing only the two antibiotic-treated groups [2] | anthrax induced lesions (histopathology) [7] | bacteremia [8] | anthrax-related lesions (histopathology) [9] | maximum percent weight loss [5] |
| --- | --- | --- | --- | --- | --- | --- | --- | --- | --- | --- | --- | --- | --- | --- | --- |
| C[C@H]1COc2c(N3CCN(C)CC3)c(F)cc3c(=O)c(C(=O)O)cn1c23 [Levofloxacin] | 100 | 6.93E+03 | 50 | 100% and 50% | 0 | 0 | ~41 |  |  |  |  |  |  |  |  |
| CCCCCCCCCCNCCNC1(C)CC(OC2C(Oc3c4cc5cc3Oc3ccc(cc3Cl)[C@@H](O)[C@@H](NC(=O)[C@@H](CC(C)C)NC)C(=O)N[C@@H](CC(N)=O)C(=O)N[C@H]5C(=O)N[C@H]3C(=O)N[C@H](C(=O)N[C@H](C(=O)O)c5cc(O)c(CNCP(=O)(O)O)c(O)c5-c5cc3ccc5O)[C@H](O)c3ccc(c(Cl)c3)O4)OC(CO)C(O)C2O)OC(C)C1O (some centres unmarked) [Vibativ, N^3″-[2-(decylamino)ethyl]-29-[[(phosphonomethyl)amino]methyl]vancomycin] | 100 | 1.93E+03 | 67 | 100% and 60% |  |  | ~41 | < 0.0625 | 2 out of 12 | significantly (p<0.05) lower | significantly (p<0.05) lower | mitigation of anthrax induced lesions | never developed bacteremia at a detectable level | generally mitigated | significantly (p<0.05) higher |
